Earlier results, collected in patent US20240350583A1, “COMPOSITION FOR PREVENTING OR TREATING FIBROTIC DISEASES, COMPRISING HAPLN1” (Chung Ang University Industry Academic Cooperation …, priority 2021, published 2024).

System: bleomycin-induced pulmonary fibrosis
Settings: group treated with prednisolone (Oku et al.); cited from earlier work

C[C@]12C=CC(=O)C=C1CC[C@@H]1[C@@H]2[C@@H](O)C[C@@]2(C)[C@H]1CC[C@]2(O)C(=O)CO [prednisolone]
level of TGFβ1, a measure of anti-fibrotic efficacy: no decrease
levels of inflammation-related biomarkers: decreased
